The source of these data is patent US9255107B2 (NANJING SANHOME PHARMACEUTICAL CO., LTD., priority 2012, dated 2016).

One assay has as its target Human ABL1 (T315I) (Homo sapiens (Human), UniProt P00519, T315I). In words: ABL1 (T315I) kinase activity assay ([γ-33P] ATP, Abltide). Format: biochemical. Conditions: 1.0 μM ATP, 5.0 μM Abltide, 120 minutes. Here is the method:
In the experimental example, the compounds prepared according the examples of the present invention were tested for the ability to inhibit ABL (T315I) kinase activity. […] Kinase activity was determined according to the manufacturer's instructions. Peptide substrate is Abltide ([…]), purchased from Millipore Corporation, USA. Ion exchange chromatography paper P81 (ion exchange filter paper) was purchased from Whatman Company, UK. [γ-33P] ATP was purchased from Perkin Elmer Company. […] [γ-33P] ATP was added at room temperature, with final concentration of 1.0 μM, and the reaction was performed for 120 minutes. 20 μl aliquots were transferred onto the ion exchange chromatography paper P81. […] Finally, γ-33P radioactivity was measured.

The test system of assay [1] is Ovcar-3 human ovarian cancer cells. In words: MTT assay, in vitro inhibitory activity on cells. Format: cell-based. The conditions noted are these: typically 48 hours. The source says: (§1) In this example, MTT assay was used to detect in vitro inhibitory activity of the compounds prepared according to the above examples on the cells.
(§2) Dimethyl sulfoxide (DMSO) is capable of dissolving formazan in cells, and absorbance value can be measured at a wavelength of 490 nm by an enzyme-linked immunometric meter, which reflects the number of living cells. Within a certain range of the number of cells, the amount of MTT crystals formed is proportional to the number of living cells.
(§3) 2. Culturing in a 37° C., 5% CO2 incubator and keeping the cells adhering to the walls of the wells.
(§4) 4. Carefully removing the supernatant, gently washing with PBS and discarding the supernatant again.
(§5) 6. Terminating culturing and carefully discarding the medium in each well. 7. Adding 150 μl dimethyl sulfoxide into each well, shaking for 10 minutes at low speed in a shaker, to make crystals fully dissolved.
(§6) 8. Measuring the absorbance of each well at 490 nm by an enzyme-linked immunometric meter.
On the technique in general: Formazan colour is commonly taken as a measure of viable cells.

The test system of assay [2] is MDA-MB-231 human breast cancer cells. In words: MTT assay, in vitro inhibitory activity on cells. Format: cell-based. The conditions noted are these: typically 48 hours.
Text: as §1, §2, §3, §4, §5, §6

The subject of the next assay is K562 leukemia cells. In words: MTT assay, in vitro inhibitory activity on cells. The conditions noted are these: Homo sapiens, typically 48 hours, read-out: IC50 K562 Chronic myelogenous leukemia cells. Format: cell-based.
Text: as §1, §2, §3, §4, §5, §6

Assay [3] has as its system Saos-2 human osteosarcoma cells. In words: MTT assay, in vitro inhibitory activity on cells. Conditions: typically 48 hours. Format: cell-based.
Text: as §1, §2, §3, §4, §5, §6

The test system of assay [4] is MEG-01 human megakaryocyte leukemia cells. In words: CellTiter-Glo cell viability assay, Bcr-Abl-positive cells. Conditions: MEG-01, 72 h, read-out: IC50 MEG-01.
Description: (§7) The resulting solutions were 10-fold serially diluted and formulated into 10 concentrations.
(§8) MEG-01 human megakaryocyte leukemia cells and KU812 human peripheral blood basophilic leukocytes, purchased from ATCC Company, USA.
(§9) The peripheral wells were filled with sterile PBS;
(§10) 2) Adding 10 μl of 5× concentration gradient of the tested compound, and adding 10 μl medium containing 0.5% DMSO into the blank control wells, in which the concentration of DMSO was 0.1%;
(§11) 3) Incubating the cells in a 37° C./5% CO2 incubator;
(§12) 4) Adding 30 μl Cell Titer-Glo® Reagent 72 hours after adding the compound;
(§13) 5) Incubating in a 37° C./5% CO2 incubator for 10 minutes; and centrifuging at low speed and then measuring chemiluminescence values on a PHERAstar microplate reader.
(§14) 6) Calculating cell viability (Cell Viability=(RLUsample/RLUnegative)×100%, wherein RLUsample was RLU (Relative Light Units) value of the well added with the compound and RLUnegative was RLU value of the well without the compound (i.e., cell control, which was treated with the same concentration of DMSO)). Data were processed by using a four-parameter logistic fitting module in Graphpad Prism 4.0 software to calculate IC50.
The subject of assay [5] is KU812 human peripheral blood basophilic leukocytes. The assay is described as above. The conditions noted are these: KU812, 72 h, read-out: IC50 KU812.
Description: as §7, §8, §9, §10, §11, §12, §13, §14

The term IC50 denotes the point on the concentration scale where inhibition reaches its midpoint.

For `Cc1ccc(C(=O)Nc2ccc(CN3CCN(C)CC3)c(C(F)(F)F)c2)cc1C#Cc1cnc2[nH]ccc2n1` [Example 3], the IC50 at Human ABL1 (T315I) stood at 2.12 nM; in assay [1] it was 2850 nM; in assay [2], 180 nM; in the assay with K562 leukemia cells, 6330 nM; in assay [3], 380 nM; in assay [4], 1.38 nM. Further, the IC50 in assay [5] stood at 0.395 nM.

As to `Cc1ccc(C(=O)Nc2ccc(CN3CCN(C)CC3)c(C(F)(F)F)c2)cc1C#Cc1ccn2nc(N)nc2c1` [Example 4, 3-((2-amino-[1,2,4]triazolo[1,5-a]pyridin-7-yl)ethynyl)-4-methyl-N-[4-((4-methylpiperazin-1-yl)methyl)-3-trifluoromethylphenyl]benzamide], the IC50 in assay [2] turned out to be 1060 nM; in the assay with K562 leukemia cells it was 13500 nM; in assay [4] it was 3.28 nM; in assay [5], 0.789 nM.

`CNc1nc2cc(C#Cc3cc(C(=O)Nc4ccc(CN5CCN(C)CC5)c(C(F)(F)F)c4)ccc3C)ccn2n1` [Example 5, 3-((2-methylamino-[1,2,4]triazolo[1,5-a]pyridin-7-yl)ethynyl)-4-methyl-N-[4-((4-methylpiperazin-1-yl)methyl)-3-trifluoromethylphenyl]benzamide]: the IC50 on Human ABL1 (T315I) came out at 2.28 nM; in assay [2] it was 2150 nM; in the assay with K562 leukemia cells it was 6790 nM; in assay [4], 1.76 nM; in assay [5], 0.633 nM.

On to `Cc1ccc(C(=O)Nc2ccc(CN3CCN(C)CC3)c(C(F)(F)F)c2)cc1C#Cc1ccn2nc(N(C)C)nc2c1` [Example 6, 3-((2-dimethylamino-[1,2,4]triazolo[1,5-a]pyridin-7-yl)ethynyl)-4-methyl-N-[4-((4-methylpiperazin-1-yl)methyl)-3-trifluoromethylphenyl]benzamide], for which the 50% inhibitory concentration (IC50) against Human ABL1 (T315I) turned out to be 39.4 nM; in the assay on K562 leukemia cells, 4160 nM.

As for `Cc1ccc(C(=O)Nc2ccc(CN3CCN(C)CC3)c(C(F)(F)F)c2)cc1C#Cc1cn(C)c(-c2ncc(C(F)(F)F)[nH]2)n1` [Example 9, 4-methyl-3-((1-methyl-5′-trifluoromethyl-1H,1′H-[2,2′-diimidazol]-4-yl)ethynyl)-N-[4-((4-methylpiperazin-1-yl)methyl)-3-trifluoromethylphenyl]benzamide], the IC50 at Human ABL1 (T315I) was found to be 6.45 nM; in assay [1], 6500 nM; in assay [2] it was 5080 nM; with K562 leukemia cells, 330 nM; in assay [3], 1160 nM.

Consider `Cc1cnc(-c2nc(C#Cc3cc(C(=O)Nc4ccc(CN5CCN(CCO)CC5)c(C(F)(F)F)c4)ccc3C)cn2C)[nH]1` [Example 12, 4-methyl-3-((1-methyl-5′-methyl-1H,1′H-[2,2′-diimidazol]-4-yl)ethynyl)-N-[4-((4-hydroxyethylpiperazin-1-yl)methyl)-3-trifluoromethylphenyl]benzamide], for which the IC50 in assay [1] is 4060 nM; in assay [2], 1270 nM; in the assay with K562 leukemia cells, 2310 nM; in assay [3] it was 5730 nM.

As for `Cc1ccc(C(=O)Nc2ccc(CN3CCN(C)CC3)c(C(F)(F)F)c2)cc1C#Cc1ccc(-c2ncc(C(F)(F)F)[nH]2)nc1` [Example 18, 4-methyl-3-((2-(5-trifluoromethyl-1H-imidazol-2-yl)pyridin-5-yl)ethynyl)-N-[4-((4-methylpiperazin-1-yl)methyl)-3-trifluoromethylphenyl]benzamide], the concentration for half-maximal inhibition (IC50) against Human ABL1 (T315I) worked out at 57.9 nM; in the assay on K562 leukemia cells it was 1430 nM.

Regarding `Cc1ccc(C(=O)Nc2ccc(CN3CCN(C)CC3)c(C(F)(F)F)c2)cc1C#Cc1ccc(-c2ncc[nH]2)nc1` [Example 19, 4-methyl-3-((2-(1H-imidazol-2-yl)pyridin-5-yl)ethynyl)-N-[4-((4-methylpiperazin-1-yl)methyl)-3-trifluoromethylphenyl]benzamide], the values for the IC50 (on Human ABL1 (T315I); in assay [2]; in the assay on K562 leukemia cells) were 6.81 nM, 3010 nM and 4520 nM, respectively.
